Laboratory results from ChEMBL document CHEMBL1148242, “New benzo[5,6]pyrrolizino[1,2-b]quinolines as cytotoxic agents” (Bioorg Med Chem Lett, 2004).

What was measured:
Type in all cases: functional, cell-based
[1] = test system: L1210; test: In vitro cytotoxic activity of compound against mouse leukemia L1210 cell line
[2] = test system: MCF7; test: In vitro cytotoxic activity of compound against human MCF-7 cell line
[3] = test system: PC-3; test: In vitro cytotoxic activity of compound against human PC3 cell line

SMILES	IC50 [1]	IC50 [2]	IC50 [3]
CCc1c2c(nc3ccc(OCCN4CCCCC4)cc13)-c1cc3cc(O)ccc3n1C2	550 nM	6.3 µM	4.8 µM
Cc1c2c(nc3ccc(OCCN4CCCCC4)cc13)-c1cc3cc(OCCN4CCCCC4)ccc3n1C2	550 nM	4.6 µM	5.3 µM
Cc1c2c(nc3ccc(OCCN4CCCCC4)cc13)-c1cc3cc(O)ccc3n1C2	550 nM	0.55 µM	4.94 µM
Cc1c2c(nc3ccc(O)cc13)-c1cc3cc(O)ccc3n1C2	3400 nM	> 50 µM	> 10 µM
COc1ccc2c(c1)cc1n2Cc2c-1nc1ccc(O)cc1c2C	600 nM	12 µM	> 50 µM
COc1ccc2c(c1)cc1n2Cc2c-1nc1ccc(OCCN3CCCCC3)cc1c2C	3930 nM	5.3 µM	5.5 µM
CC[C@@]1(O)C(=O)OCc2c1cc1n(c2=O)Cc2cc3ccccc3nc2-1 [CAMPTOTHECIN]	60 nM	0.32 µM	0.31 µM
